Drawing on US20100311714A1, “1H-IMIDAZO[4,5-c]QUINOLINONE COMPOUNDS” (priority 2009, published 2010), this text covers IC50 for 25 molecules.

Read-outs that look alike come from different tables or passages of the source. A value given as a limit tells only on which side of the number the result lay.

One assay has as its target T1, PI3K alfa (Homo sapiens, UniProt P42336).
T1 construct: His tag (C); made in house; host or cells: baculovirus BV1075; Tn5 (Trichoplusia ni) or TiniPro insect cells
The assay can be described thus: PI3K alpha kinase assay (Kinase-Glo luminescence). The format is biochemical. In short, it runs like this: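 Kinase-Glo luminescence read of ATP remaining after PI3Kα (10 nM) phosphorylates 10 μg/mL bovine liver phosphatidylinositol with 1 μM ATP, pH 7.5 TRIS, 3 mM MgCl2, 0.05% CHAPS; 60 min at room temperature. IC50 from 4-parameter logistic fit over 8 concentrations.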

Assay [1] concerns S6 Ribosomal Protein phosphorylation Ser235/236 in TSC1 null mouse embryo fibroblast (MEF) cells. The experiment in a line: Reverse protein array, S6 Ribosomal Protein phosphorylation in TSC1 null MEF cells. It counts as cell-based. To be noted: 1 h, TSC1-/- MEFs, 60 minutes. In short, it runs like this:
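Phospho-S6 (Ser235/236) was quantified by reverse protein array of cell lysates with a phospho-specific primary antibody. […]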

T1 sequence (P42336 with tags, fused parts or gaps limits assumed): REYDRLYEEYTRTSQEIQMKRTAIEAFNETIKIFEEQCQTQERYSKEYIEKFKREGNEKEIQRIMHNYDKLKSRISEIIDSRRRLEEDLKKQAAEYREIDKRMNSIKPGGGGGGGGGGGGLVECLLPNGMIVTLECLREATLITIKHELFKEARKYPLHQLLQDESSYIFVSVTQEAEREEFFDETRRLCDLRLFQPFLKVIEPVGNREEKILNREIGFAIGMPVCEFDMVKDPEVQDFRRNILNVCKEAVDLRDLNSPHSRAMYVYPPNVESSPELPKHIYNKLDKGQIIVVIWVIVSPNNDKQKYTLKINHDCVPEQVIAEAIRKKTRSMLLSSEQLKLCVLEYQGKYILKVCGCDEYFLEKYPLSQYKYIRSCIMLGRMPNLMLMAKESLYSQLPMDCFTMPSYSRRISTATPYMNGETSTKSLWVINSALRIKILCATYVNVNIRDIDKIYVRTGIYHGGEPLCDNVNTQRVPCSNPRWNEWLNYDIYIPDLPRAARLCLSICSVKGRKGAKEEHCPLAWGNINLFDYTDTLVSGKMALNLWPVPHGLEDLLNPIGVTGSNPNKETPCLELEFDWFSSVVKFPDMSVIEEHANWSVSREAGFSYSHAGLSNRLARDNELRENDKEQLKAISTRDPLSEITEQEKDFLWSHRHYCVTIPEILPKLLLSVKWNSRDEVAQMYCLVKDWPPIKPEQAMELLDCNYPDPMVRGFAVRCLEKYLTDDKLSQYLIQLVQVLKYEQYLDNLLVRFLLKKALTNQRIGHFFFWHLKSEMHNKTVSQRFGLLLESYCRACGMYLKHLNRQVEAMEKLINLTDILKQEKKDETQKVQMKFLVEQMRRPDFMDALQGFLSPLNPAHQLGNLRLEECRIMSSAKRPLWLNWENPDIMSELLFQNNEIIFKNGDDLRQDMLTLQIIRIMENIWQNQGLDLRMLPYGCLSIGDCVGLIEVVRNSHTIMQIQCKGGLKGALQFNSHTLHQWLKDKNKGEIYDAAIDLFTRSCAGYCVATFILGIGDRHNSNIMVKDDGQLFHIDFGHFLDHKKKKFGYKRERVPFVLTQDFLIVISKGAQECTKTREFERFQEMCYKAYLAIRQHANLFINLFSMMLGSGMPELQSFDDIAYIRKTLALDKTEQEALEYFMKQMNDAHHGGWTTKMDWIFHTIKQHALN

As to `CNc1cc(-c2ccc3ncc4c(c3c2)n(-c2cccnc2C)c(=O)n4C)cnc1C` [Example 2.32, 3-Methyl-8-(6-methyl-5-methylamino-pyridin-3-yl)-1-(2-methyl-pyridin-3-yl)-1,3-dihydro-imidazo[4,5-c]quinolin-2-one], the IC50 on PI3K alfa (read-out: EPK_PI3Kalfa/IC50) came to 31 nM; in assay [1] (read-out: p-S6 IC50), 2 nM.
As for `Cc1cccnc1-n1c(=O)n(C)c2cnc3ccc(-c4ccc(C(N)=O)cc4)cc3c21` [Example 3.3, 4-[3-Methyl-1-(3-methyl-pyridin-2-yl)-2-oxo-2,3-dihydro-1H-imidazo[4,5-c]quinolin-8-yl]-benzamide], the values for the IC50 (at PI3K alfa (read-out: PI3Kalfa/IC50); in assay [1] (read-out: p-S6)) were 51 nM and 297 nM, respectively.
As to `Cc1cccnc1-n1c(=O)n(C)c2cnc3ccc(-c4cnc(N)c(C(F)(F)F)c4)cc3c21` [Example 3.12, 8-(6-Amino-5-trifluoromethyl-pyridin-3-yl)-3-methyl-1-(3-methyl-pyridin-2-yl)-1,3-dihydro-imidazo[4,5-c]quinolin-2-one], the IC50 at PI3K alfa (read-out: PI3Kalfa/IC50) is 16 nM; in assay [1] (read-out: p-S6), 13.2 nM.
On to `CCOc1ccc(-c2ccc3ncc4c(c3c2)n(-c2cnccc2C)c(=O)n4C)cn1` [Example 4.2, 8-(6-Ethoxy-pyridin-3-yl)-3-methyl-1-(4-methyl-pyridin-3-yl)-1,3-dihydro-imidazo[4,5-c]quinolin-2-one], for which the IC50 at PI3K alfa (read-out: PI3Kalfa/IC50) was determined as 206 nM; in assay [1] (read-out: p-S6) it was 460 nM.
Consider `COc1ccc(-c2ccc3ncc4c(c3c2)n(-c2cnccc2C)c(=O)n4C)cn1` [Example 4.3, 8-(6-Methoxy-pyridin-3-yl)-3-methyl-1-(4-methyl-pyridin-3-yl)-1,3-dihydro-imidazo[4,5-c]quinolin-2-one], for which the IC50 on PI3K alfa (read-out: PI3Kalfa/IC50) is 73 nM; in assay [1] (read-out: p-S6) it was 220 nM.
For `Cn1c(=O)n(-c2cccnc2F)c2c3cc(-c4cnc(N)c(C(F)(F)F)c4)ccc3ncc21` [Example 6.2, 8-(6-Amino-5-trifluoromethyl-pyridin-3-yl)-1-(2-fluoro-pyridin-3-yl)-3-methyl-1,3-dihydro-imidazo[4,5-c]quinolin-2-one], the values for the IC50 (at PI3K alfa (read-out: PI3Kalfa/IC50); in assay [1] (read-out: p-S6)) were 9 nM and 1.47 nM, respectively.
`Cc1nc(F)ccc1-n1c(=O)n(C)c2cnc3ccc(-c4cnc(N)c(C(F)(F)F)c4)cc3c21` [Example 7.1, 8-(6-Amino-5-trifluoromethyl-pyridin-3-yl)-1-(6-fluoro-2-methyl-pyridin-3-yl)-3-methyl-1,3-dihydro-imidazo[4,5-c]quinolin-2-one]: the IC50 on PI3K alfa (read-out: PI3Kalfa/IC50) is 4 nM; in assay [1] (read-out: p-S6) it was 2.23 nM.
The matching figures for `Cc1nc(F)ccc1-n1c(=O)n(C)c2cnc3ccc(-c4cnc5c(ccn5C)c4)cc3c21` [Example 7.2, 1-(6-Fluoro-2-methyl-pyridin-3-yl)-3-methyl-8-(1-methyl-1H-pyrrolo[2,3-b]pyridin-5-yl)-1,3-dihydro-imidazo[4,5-c]quinolin-2-one]: 32 nM and 17.9 nM.
Regarding `CCOc1ccc(-c2ccc3ncc4c(c3c2)n(-c2ccc(F)nc2C)c(=O)n4C)cn1` [Example 7.3, 8-(6-Ethoxy-pyridin-3-yl)-1-(6-fluoro-2-methyl-pyridin-3-yl)-3-methyl-1,3-dihydro-imidazo[4,5-c]quinolin-2-one], the IC50 was 67 nM on PI3K alfa (read-out: PI3Kalfa/IC50) and 84.3 nM in assay [1] (read-out: p-S6).
For `CNc1ccc(-c2ccc3ncc4c(c3c2)n(-c2ccc(F)nc2C)c(=O)n4C)cn1` [Example 7.4, 1-(6-Fluoro-2-methyl-pyridin-3-yl)-3-methyl-8-(6-methylamino-pyridin-3-yl)-1,3-dihydro-imidazo[4,5-c]quinolin-2-one], the IC50 at PI3K alfa (read-out: PI3Kalfa/IC50) is 27 nM; in assay [1] (read-out: p-S6), 8.52 nM.
Regarding `CCOc1cc(-c2ccc3ncc4c(c3c2)n(-c2ccc(F)nc2C)c(=O)n4C)cnc1COC` [Example 7.5, 8-(5-Ethoxy-6-methoxymethyl-pyridin-3-yl)-1-(6-fluoro-2-methyl-pyridin-3-yl)-3-methyl-1,3-dihydro-imidazo[4,5-c]quinolin-2-one], the IC50 at PI3K alfa (read-out: EPK_PI3Kalfa/IC50) was found to be 94 nM; in assay [1] (read-out: p-S6 IC50) it was 21 nM.
The matching figures for `Cc1nc(F)ccc1-n1c(=O)n(C)c2cnc3ccc(-c4cncc(C(C)(C)O)c4)cc3c21` [Example 7.8, 1-(6-Fluoro-2-methyl-pyridin-3-yl)-8-[5-(1-hydroxy-1-methyl-ethyl)-pyridin-3-yl]-3-methyl-1,3-dihydro-imidazo[4,5-c]quinolin-2-one]: 21 nM and 10 nM.
As to `CCOc1ccc(-c2ccc3ncc4c(c3c2)n(-c2ccc(N3CCNCC3)nc2OC)c(=O)n4C)cn1` [Example 9.1, 8-(6-Ethoxy-pyridin-3-yl)-1-(2-methoxy-6-piperazin-1-yl-pyridin-3-yl)-3-methyl-1,3-dihydro-imidazo[4,5-c]quinolin-2-one], the IC50 on PI3K alfa (read-out: PI3Kalfa/IC50) was determined as 58 nM; in assay [1] (read-out: p-S6), 13.5 nM.
The matching figures for `COc1nc(N2CCNCC2)ccc1-n1c(=O)n(C)c2cnc3ccc(-c4cnc(N)c(C(F)(F)F)c4)cc3c21` [Example 9.2, 8-(6-Amino-5-trifluoromethyl-pyridin-3-yl)-1-(2-methoxy-6-piperazin-1-yl-pyridin-3-yl)-3-methyl-1,3-dihydro-imidazo[4,5-c]quinolin-2-one]: 18 nM and 3.35 nM.
As to `CCOc1cc(-c2ccc3ncc4c(c3c2)n(-c2ccc(OCCOC)nc2C)c(=O)n4C)cnc1COC` [Example 22.1, 8-(5-Ethoxy-6-methoxymethyl-pyridin-3-yl)-1-[6-(2-methoxy-ethoxy)-2-methyl-pyridin-3-yl]-3-methyl-1,3-dihydro-imidazo[4,5-c]quinolin-2-one], the results for the IC50 (on PI3K alfa (read-out: EPK_PI3Kalfa/IC50); in assay [1] (read-out: p-S6 IC50)) were 188 nM and 7 nM, respectively.
For `Cc1nc(N2CCC2)ccc1-n1c(=O)n(C)c2cnc3ccc(-c4cncc(N5CCC5)c4)cc3c21` [Example 23.1, 1-(6-Azetidin-1-yl-2-methyl-pyridin-3-yl)-8-(5-azetidin-1-yl-pyridin-3-yl)-3-methyl-1,3-dihydro-imidazo[4,5-c]quinolin-2-one], the IC50 was 14 nM at PI3K alfa (read-out: EPK_PI3Kalfa/IC50) and 2 nM in assay [1] (read-out: p-S6 IC50).
The matching figures for `CCNc1cc(-c2ccc3ncc4c(c3c2)n(-c2ccc(N3CCC3)nc2C)c(=O)n4C)cnc1CO` [Example 23.8, 1-(6-Azetidin-1-yl-2-methyl-pyridin-3-yl)-8-(5-ethylamino-6-hydroxymethyl-pyridin-3-yl)-3-methyl-1,3-dihydro-imidazo[4,5-c]quinolin-2-one]: 14 nM and 6 nM.
For the molecule `CNc1ncc(-c2ccc3ncc4c(c3c2)n(-c2ccc(N3CC(F)(F)C3)nc2C)c(=O)n4C)cn1` [Example 24.1, 1-[6-(3,3-Difluoro-azetidin-1-yl)-2-methyl-pyridin-3-yl]-3-methyl-8-(2-methylamino-pyrimidin-5-yl)-1,3-dihydro-imidazo[4,5-c]quinolin-2-one], the IC50 on PI3K alfa (read-out: EPK_PI3Kalfa/IC50) stood at 49 nM; in assay [1] (read-out: p-S6 IC50), 2 nM.
In the case of `CCOc1cc(-c2ccc3ncc4c(c3c2)n(-c2ccc(N3CCCC3)nc2C)c(=O)n4C)cnc1COC` [Example 25.2, 8-(5-Ethoxy-6-methoxymethyl-pyridin-3-yl)-3-methyl-1-(2-methyl-6-pyrrolidin-1-yl-pyridin-3-yl)-1,3-dihydro-imidazo[4,5-c]quinolin-2-one], the IC50 was 67 nM at PI3K alfa (read-out: EPK_PI3Kalfa/IC50) and 2 nM in assay [1] (read-out: p-S6 IC50).
The matching figures for `Cc1nc(N2CCCC2)ccc1-n1c(=O)n(C)c2cnc3ccc(-c4cncc(C(C)(C)O)c4)cc3c21` [Example 25.3, 8-[5-(1-Hydroxy-1-methyl-ethyl)-pyridin-3-yl]-3-methyl-1-(2-methyl-6-pyrrolidin-1-yl-pyridin-3-yl)-1,3-dihydro-imidazo[4,5-c]quinolin-2-one]: less than 3 nM and less than 0.457 nM.
Take `Cc1nc(N(C)CCO)ccc1-n1c(=O)n(C)c2cnc3ccc(-c4cnc(N)c(C(F)(F)F)c4)cc3c21` [Example 26.1, 8-(6-Amino-5-trifluoromethyl-pyridin-3-yl)-1-{6-[(2-hydroxy-ethyl)-methyl-amino]-2-methyl-pyridin-3-yl}-3-methyl-1,3-dihydro-imidazo[4,5-c]quinolin-2-one]: the results for the IC50 (on PI3K alfa (read-out: EPK_PI3Kalfa/IC50); in assay [1] (read-out: p-S6 IC50)) were 12 nM and less than 0.457 nM, respectively.
Take `CNc1ncc(-c2ccc3ncc4c(c3c2)n(-c2ccc(N(C)CCO)nc2C)c(=O)n4C)cn1` [Example 26.2, 1-{6-[(2-Hydroxy-ethyl)-methyl-amino]-2-methyl-pyridin-3-yl}-3-methyl-8-(2-methylamino-pyrimidin-5-yl)-1,3-dihydro-imidazo[4,5-c]quinolin-2-one]: the values for the IC50 (at PI3K alfa (read-out: EPK_PI3Kalfa/IC50); in assay [1] (read-out: p-S6 IC50)) were 63 nM and less than 0.457 nM, respectively.
As to `CNc1ncc(-c2ccc3ncc4c(c3c2)n(-c2ccc(N3CCC(O)C3)nc2C)c(=O)n4C)cn1` (centres unmarked) [Example 27.2, 1-[6-(3-Hydroxy-pyrrolidin-1-yl)-2-methyl-pyridin-3-yl]-3-methyl-8-(2-methylamino-pyrimidin-5-yl)-1,3-dihydro-imidazo[4,5-c]quinolin-2-one], the IC50 on PI3K alfa (read-out: EPK_PI3Kalfa/IC50) stood at 32 nM; in assay [1] (read-out: p-S6 IC50), 2 nM.
Regarding `COC1CCN(c2ccc(-n3c(=O)n(C)c4cnc5ccc(-c6cncc(C(C)(C)O)c6)cc5c43)c(C)n2)C1` (centres unmarked) [Example 28.1, 8-[5-(1-Hydroxy-1-methyl-ethyl)-pyridin-3-yl]-1-[6-(3-methoxy-pyrrolidin-1-yl)-2-methyl-pyridin-3-yl]-3-methyl-1,3-dihydro-imidazo[4,5-c]quinolin-2-one], the figures for the IC50 (at PI3K alfa (read-out: EPK_PI3Kalfa/IC50); in assay [1] (read-out: p-S6 IC50)) were 18 nM and 1 nM, respectively.
`CNc1ncc(-c2ccc3ncc4c(c3c2)n(-c2ccc(N3CC(O)C3)nc2C)c(=O)n4C)cc1F` [Example 29.3, 8-(5-Fluoro-6-methylamino-pyridin-3-yl)-1-[6-(3-hydroxy-azetidin-1-yl)-2-methyl-pyridin-3-yl]-3-methyl-1,3-dihydro-imidazo[4,5-c]quinolin-2-one]: the IC50 on PI3K alfa (read-out: EPK_PI3Kalfa/IC50) turned out to be 40 nM; in assay [1] (read-out: p-S6 IC50), 7.8 nM.
